# Measured values published in patent publication US4228158A, “Synthetic peptides having pituitary growth hormone releasing activity” (priority 1979, dated 1980).
# Non-standard residues stand in square brackets, D forms with d. Residues, ends and D or L forms follow the SMILES beside them.
# Tested on: pituitaries removed from 20 day old female rats
# Test: In vitro growth hormone release study (incubated rat pituitaries, GH radioimmunoassay)
# Type: cell-based
# Details: two pituitaries in 1 ml lactated Ringer's, 36° C., ± SEM
# Experimental: Female rats of the CD-1 strain were housed in a constant temperature room at 24° C. with 14 hours light and 10 hours darkness. The rats were fed Purina brand rat chow ab libitum.
# All studies were started between 0800 and 1000 hours.
# Pituitaries were removed from 20 day old female rats. Two pituitaries were incubated at 36° C. in 1 ml of lactated Ringer's solution in 10 ml polytetrafluoroethylene beakers in a Dubnoff Shaker (90 cycles/min.). The pituitaries were incubated a total of 4 hours (P1, P2, I3, and I4). After two successive one hour preincubation periods (P1, P2), the peptide was added to the incubation medium hourly for 2 hours (I3, I4).
# This in vitro study was performed in triplicate and a standard radioimmunoassay of growth hormone present in the incubation medium was performed in duplicate. The hormonal activity was calculated as the difference (Δ) of growth hormone (GH) levels between I3, I4 and P2, i.e., (I3 -P2) and (I4 -P2). P values were calculated by Students' t test using six growth hormone values for each value recorded.
# The growth hormone radioimmunoassay reagents were distributed by the National Institute of Arthritis and […] (NIAMDD) program. The growth hormone values were calculated in terms of nanograms (ng) of a rat standard with a growth hormone potency of 0.61 units/mg.
compound,measurement,setting,value
CSCC[C@H](NC(=O)[C@H](Cc1ccccc1)NC(=O)[C@@H](Cc1c[nH]c2ccccc12)NC(=O)[C@@H](Cc1c[nH]c2ccccc12)NC(=O)[C@@H](N)Cc1ccc(O)cc1)C(N)=O [H2 N-Tyr-D-Trp-D-Trp-Phe-Met-CONH2] (H-Y[dW][dW]FM-NH2),"In vitro growth hormone release (ΔGH, I3-P2 and I4-P2)","1μg peptide, P <0.001",1697 ± 222 ngΔGH/ml incubation medium
same,"In vitro growth hormone release (ΔGH, I3-P2 and I4-P2)","20μg peptide, P <0.001",1530 ± 208 ngΔGH/ml incubation medium
same,"In vitro growth hormone release (ΔGH, I3-P2 and I4-P2)","100μg peptide, P ~0.02",219 ± 113 ngΔGH/ml incubation medium
